Assay results reported in the supplement of paper PMC7295968.
± gives the standard deviation of the averaged measurements.

Experiments:
[1] = tested on: THP-1 (vitamin D3 differentiated); assay: EC50 of beta-agonist gene-signature score cos_weight_AC (signature02); conditions: 4 h
Method: (§1)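 Vitamin-D3-differentiated THP-1 cells were treated 4 h with compounds (1:10 serial dilutions, top 100 uM). Two 8-gene QuantiGene Plex signatures were read out as TBP-normalised rscores; the cos_weight_AC signature score (% of 10 uM isoproterenol active control) was fitted by 4PL/nonparametric fit to give EC50, with constant fits assigned one log unit outside the tested range. cAMP EC50s come from a 20 min HTRF assay with IBMX at 37 °C, fitted with the same algorithm.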

[2] = tested on: THP-1 (vitamin D3 differentiated); assay: EC50 of beta-agonist gene-signature score cos_weight_AC (signature01); conditions: 4 h
Method: as §1

[3] = tested on: THP-1 (vitamin D3 differentiated); assay: cAMP EC50 (HTRF); higher = lower potency; conditions: 20 min
Method: as §1

Row | Structure (SMILES) | EC50 [1] | EC50 [2] | cAMP EC50 [3]
1 | CCC(NC(C)C)C(O)c1ccc(O)c(O)c1 (centres undefined) [Isoetharine] | 48.4 nM | 32.1 nM | 
2 | CC(C)(C)NCC(O)c1ccccc1Cl (centres undefined) [Tulobuterol] | 215 nM |  | 32.1 ± 20 nM
3 | COc1cc(C[C@@H]2NCCc3cc(O)c(O)cc32)cc(OC)c1OC [Tretoquinol] |  | 0.237 nM | 
4 | CC(C)(C)NCC(O)c1cc(O)cc(O)c1 (centres undefined) [Terbutaline] | 230 nM | 216 nM | 349 ± 260 nM
5 | COc1ccc(CC(C)NCC(O)c2ccc(O)c(NC=O)c2)cc1 (centres undefined) [Formoterol] | 0.108 nM | 0.254 nM | 0.0101 nM
6 | C=C[C@@]1(C)CC(=O)[C@]2(O)[C@@]3(C)[C@@H](O)CCC(C)(C)[C@@H]3[C@H](O)[C@H](OC(C)=O)[C@@]2(C)O1 [Forskolin] | 2310 nM | 2770 nM | 
7 | CC(NCCc1ccc(O)cc1)C(O)c1ccc(O)cc1 (centres undefined) [Ritodrine] | 294 nM | 295 nM | 624 ± 160 nM
8 | CC(C)(C)NCC(O)c1ccc(O)c(CO)c1 (centres undefined) [Salbutamol] | 64.6 nM | 98.5 nM | 10.6 ± 9.1 nM
9 | Oc1ccc(CCNCCCCCCNCCc2ccccc2)cc1O [Dopexamine] |  |  | 13900 ± 12000 nM
10 | CC(Cc1ccc(OCC(=O)O)cc1)NCC(O)c1cccc(Cl)c1 (centres undefined) | 167 nM | 421 nM | 50.1 ± 31 nM
11 | CNCCc1cnc[nH]1 [N-alpha-methylhistamine] | 234 nM | 248 nM | 180 ± 26 nM
12 | CC(Cc1ccc(O)cc1)NCC(O)c1cc(O)cc(O)c1 (centres undefined) [Fenoterol] | 3.65 nM | 8.21 nM | 1.75 ± 1.5 nM
13 | CNC[C@H](O)c1ccc(O)c(O)c1 [Adrenaline] | 68.1 nM | 64.7 nM | 
14 | CC(C)NCC(O)c1cc(O)cc(O)c1 (centres undefined) [Metaproterenol] |  | 21.6 nM | 5.17 ± 2.3 nM
15 | NC[C@H](O)c1ccc(O)c(O)c1 [Norepinephrine] | 6.13 nM | 1.46 nM | 0.42 ± 0.14 nM
16 | CC(CCc1ccc(O)cc1)NCCc1ccc(O)c(O)c1 (centres undefined) [Dobutamine] |  | 8.15 nM | 1.38 ± 0.91 nM

Now from value to compound:

Row | EC50 [1] | EC50 [2] | cAMP EC50 [3] | Structure (SMILES)
17 | 0.567 nM | 3.48 nM | < 0.01 nM | CC(C)(Cc1ccccc1)NCC(O)c1ccc(O)c(NS(C)(=O)=O)c1 (centres undefined) [Zinterol]
18 | 5.86 nM | 5.65 nM | < 0.01 nM | OCc1cc([C@@H](O)CNCCCCCCOCCOCc2c(Cl)cccc2Cl)ccc1O [Vilanterol]
19 | 0.127 nM | 2.88 nM |  | COc1ccc(CC(C)(C)NC[C@H](O)c2cc(O)cc3c2OCC(=O)N3)cc1 [Olodaterol]
20 | < 0.01 nM | < 0.01 nM | < 0.01 nM | O=c1ccc2c([C@@H](O)CNCCCCCCOCC(F)(F)c3ccccc3)ccc(O)c2[nH]1 [Abediterol]
21 | > 100000 nM | > 100000 nM | > 100000 nM | Cn1cc(C(F)(F)F)nc1-c1ccc(OCC(O)CNCCOc2ccc(O)c(C(N)=O)c2)cc1 (centres undefined)
22 |  | 0.265 nM |  | COc1cc(NC(=O)CCN2CCC(OC(=O)Nc3ccccc3-c3ccccc3)CC2)c(Cl)cc1CNC[C@H](O)c1ccc(O)c2[nH]c(=O)ccc12 [Batefenterol]
23 | 0.703 nM |  |  | CCC(NC(C)C)C(O)c1ccc(O)c2[nH]c(=O)ccc12 (centres undefined) [Procaterol]
